Active and inactive are the calls of the source.
Legend:
[1] = target: T1, Histone-lysine N-methyltransferase NSD2 (Homo sapiens, UniProt O96028); type: biochemical
T1 sequence (O96028 whole entry): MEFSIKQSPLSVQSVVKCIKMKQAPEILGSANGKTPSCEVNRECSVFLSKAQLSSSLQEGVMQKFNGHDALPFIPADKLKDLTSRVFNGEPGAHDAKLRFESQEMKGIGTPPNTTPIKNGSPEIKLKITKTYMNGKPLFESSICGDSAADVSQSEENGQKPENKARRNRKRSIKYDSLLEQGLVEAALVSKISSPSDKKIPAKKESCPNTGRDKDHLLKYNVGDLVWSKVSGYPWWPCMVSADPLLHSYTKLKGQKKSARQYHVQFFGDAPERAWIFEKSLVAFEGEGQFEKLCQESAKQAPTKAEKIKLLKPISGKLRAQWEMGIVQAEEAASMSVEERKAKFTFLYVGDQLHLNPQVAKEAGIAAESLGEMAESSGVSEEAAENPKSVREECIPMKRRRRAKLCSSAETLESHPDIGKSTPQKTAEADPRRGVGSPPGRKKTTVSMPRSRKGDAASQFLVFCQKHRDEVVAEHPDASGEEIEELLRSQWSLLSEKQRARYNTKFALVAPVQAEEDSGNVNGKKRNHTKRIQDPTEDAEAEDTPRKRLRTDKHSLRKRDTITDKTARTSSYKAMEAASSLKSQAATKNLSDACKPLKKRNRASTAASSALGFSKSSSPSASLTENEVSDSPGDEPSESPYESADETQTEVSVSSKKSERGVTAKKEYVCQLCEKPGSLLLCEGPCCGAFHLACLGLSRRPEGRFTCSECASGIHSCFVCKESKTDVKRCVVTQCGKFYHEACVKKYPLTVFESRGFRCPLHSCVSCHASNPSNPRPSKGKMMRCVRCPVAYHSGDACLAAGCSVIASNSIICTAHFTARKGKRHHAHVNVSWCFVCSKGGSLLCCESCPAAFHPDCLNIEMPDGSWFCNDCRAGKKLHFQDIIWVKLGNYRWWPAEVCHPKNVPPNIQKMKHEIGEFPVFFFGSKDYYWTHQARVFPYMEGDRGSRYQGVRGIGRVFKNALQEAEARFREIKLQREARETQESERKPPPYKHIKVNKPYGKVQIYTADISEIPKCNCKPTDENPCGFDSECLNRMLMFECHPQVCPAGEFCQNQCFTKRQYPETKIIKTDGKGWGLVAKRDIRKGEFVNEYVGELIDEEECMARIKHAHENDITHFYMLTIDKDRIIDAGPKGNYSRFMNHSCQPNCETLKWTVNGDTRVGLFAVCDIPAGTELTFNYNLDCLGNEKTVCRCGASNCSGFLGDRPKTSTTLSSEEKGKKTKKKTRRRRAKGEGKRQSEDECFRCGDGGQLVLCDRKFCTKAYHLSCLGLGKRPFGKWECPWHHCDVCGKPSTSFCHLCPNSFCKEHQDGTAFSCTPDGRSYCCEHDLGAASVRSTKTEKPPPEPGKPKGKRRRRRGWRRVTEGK

[2] = target: Tyrosine-protein kinase JAK2 (Homo sapiens, UniProt O60674); type: functional;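 note: JAK2 tested as one member of a kinase panel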
[3] = target: cGMP-dependent protein kinase 1 (Homo sapiens, UniProt Q13976); type: functional;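 note: value from a kinome panel screen with PRKG1 as the panel member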
[4] = target: 5'-AMP-activated protein kinase catalytic subunit alpha-1 (Homo sapiens, UniProt Q13131); type: functional
[5] = target: Serine/threonine-protein kinase PLK4 (Homo sapiens, UniProt O00444); type: functional;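 note: PLK4 measured as one member of a kinome-wide kinase profiling panel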
[6] = target: Serine/threonine-protein kinase D2 (Homo sapiens, UniProt Q9BZL6); type: functional;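 note: measured against PRKD2 as one member of a kinome-wide kinase profiling panel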
Sequence of Serine/threonine-protein kinase D2 (Q9BZL6 whole entry): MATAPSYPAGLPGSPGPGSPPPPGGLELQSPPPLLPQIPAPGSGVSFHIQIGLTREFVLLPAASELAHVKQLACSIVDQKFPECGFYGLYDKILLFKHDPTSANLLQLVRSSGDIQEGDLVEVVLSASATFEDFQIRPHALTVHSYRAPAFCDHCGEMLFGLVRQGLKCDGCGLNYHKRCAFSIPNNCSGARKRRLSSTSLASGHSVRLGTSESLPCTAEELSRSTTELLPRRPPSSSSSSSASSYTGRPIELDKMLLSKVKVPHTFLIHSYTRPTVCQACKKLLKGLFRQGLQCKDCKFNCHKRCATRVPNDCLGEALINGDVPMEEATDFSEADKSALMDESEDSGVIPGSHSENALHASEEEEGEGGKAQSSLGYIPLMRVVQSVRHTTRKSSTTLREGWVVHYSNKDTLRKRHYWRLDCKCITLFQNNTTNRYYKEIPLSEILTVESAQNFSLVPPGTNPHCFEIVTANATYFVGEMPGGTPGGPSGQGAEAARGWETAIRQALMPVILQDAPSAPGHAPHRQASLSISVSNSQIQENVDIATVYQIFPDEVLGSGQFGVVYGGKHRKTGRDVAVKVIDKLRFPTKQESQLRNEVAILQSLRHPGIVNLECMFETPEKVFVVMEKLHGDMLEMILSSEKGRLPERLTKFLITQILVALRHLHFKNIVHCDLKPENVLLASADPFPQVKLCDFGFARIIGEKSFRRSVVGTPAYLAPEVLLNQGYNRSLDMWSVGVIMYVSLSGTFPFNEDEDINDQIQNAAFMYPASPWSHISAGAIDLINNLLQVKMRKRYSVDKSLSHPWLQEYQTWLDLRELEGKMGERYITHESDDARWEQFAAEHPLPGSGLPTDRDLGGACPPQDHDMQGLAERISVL

[7] = target: Tyrosine-protein kinase HCK (Homo sapiens, UniProt P08631); assay: Navigating the Kinome. Panel member name: HCK; type: functional
Sequence of Tyrosine-protein kinase HCK (P08631 whole entry): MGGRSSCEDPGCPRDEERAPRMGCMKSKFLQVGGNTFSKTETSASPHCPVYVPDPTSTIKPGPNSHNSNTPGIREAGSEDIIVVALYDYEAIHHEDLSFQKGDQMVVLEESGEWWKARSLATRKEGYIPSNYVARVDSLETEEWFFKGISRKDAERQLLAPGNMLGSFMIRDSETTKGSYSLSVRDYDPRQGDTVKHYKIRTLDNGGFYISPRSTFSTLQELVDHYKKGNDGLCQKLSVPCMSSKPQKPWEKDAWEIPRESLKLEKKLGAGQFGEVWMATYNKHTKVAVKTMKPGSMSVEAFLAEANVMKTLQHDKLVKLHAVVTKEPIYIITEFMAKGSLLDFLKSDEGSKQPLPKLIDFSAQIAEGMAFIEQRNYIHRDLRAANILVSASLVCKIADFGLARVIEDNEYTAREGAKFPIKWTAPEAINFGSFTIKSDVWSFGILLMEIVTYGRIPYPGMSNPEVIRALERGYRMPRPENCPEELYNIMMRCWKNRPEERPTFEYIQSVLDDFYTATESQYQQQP

[8] = target: MAP/microtubule affinity-regulating kinase 4 (Homo sapiens, UniProt Q96L34); assay: Navigating the Kinome. Panel member name: MARK4; type: functional
[9] = target: Tyrosine-protein kinase Lck (Homo sapiens, UniProt P06239); type: functional;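 note: lck was assayed as one member of a kinase panel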
[10] = target: Serine/threonine-protein kinase pim-1 (Homo sapiens, UniProt P11309); type: functional
Sequence of Serine/threonine-protein kinase pim-1 (P11309 whole entry): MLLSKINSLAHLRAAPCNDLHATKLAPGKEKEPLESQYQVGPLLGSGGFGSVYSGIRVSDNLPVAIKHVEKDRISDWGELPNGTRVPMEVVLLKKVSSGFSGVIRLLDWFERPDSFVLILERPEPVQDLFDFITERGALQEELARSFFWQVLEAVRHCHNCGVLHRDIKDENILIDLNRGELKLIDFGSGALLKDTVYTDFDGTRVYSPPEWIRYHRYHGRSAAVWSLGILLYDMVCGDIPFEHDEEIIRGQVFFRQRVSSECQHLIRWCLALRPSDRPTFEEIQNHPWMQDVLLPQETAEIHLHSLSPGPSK

[11] = target: Serine/threonine-protein kinase PAK 1 (Homo sapiens, UniProt Q13153); type: functional
[12] = target: Tyrosine-protein kinase Lyn (Homo sapiens, UniProt P07948); type: functional;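 note: lyn as one member of a kinase panel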
[13] = target: Tyrosine-protein kinase Srms (Homo sapiens, UniProt Q9H3Y6); type: functional;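 note: SRMS measured as one member of a kinome-wide kinase profiling panel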
Sequence of Tyrosine-protein kinase Srms (Q9H3Y6 whole entry): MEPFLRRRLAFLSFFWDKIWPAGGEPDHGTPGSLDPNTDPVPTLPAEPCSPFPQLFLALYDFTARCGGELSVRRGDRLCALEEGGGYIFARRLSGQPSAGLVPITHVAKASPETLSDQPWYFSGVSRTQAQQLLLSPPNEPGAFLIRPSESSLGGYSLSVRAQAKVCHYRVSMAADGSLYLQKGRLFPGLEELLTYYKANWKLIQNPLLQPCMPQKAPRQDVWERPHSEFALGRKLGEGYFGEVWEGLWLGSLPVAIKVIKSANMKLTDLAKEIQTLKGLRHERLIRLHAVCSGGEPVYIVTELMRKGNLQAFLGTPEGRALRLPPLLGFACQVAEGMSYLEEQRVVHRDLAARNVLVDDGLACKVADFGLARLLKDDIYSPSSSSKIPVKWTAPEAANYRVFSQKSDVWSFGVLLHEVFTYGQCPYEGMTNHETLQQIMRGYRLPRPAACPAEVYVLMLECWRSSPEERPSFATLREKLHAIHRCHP

[14] = target: Dual specificity tyrosine-phosphorylation-regulated kinase 3 (Homo sapiens, UniProt O43781); type: functional;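 note: measured as one member of a broad kinase panel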
[15] = target: Serine/threonine-protein kinase Chk1 (Homo sapiens, UniProt O14757); type: functional;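 note: measured as one member of a kinome-wide kinase profiling panel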
[16] = target: Vascular endothelial growth factor receptor 2 (Homo sapiens, UniProt P35968); type: functional
[17] = target: G protein-coupled receptor kinase 5 (Homo sapiens, UniProt P34947); assay: Navigating the Kinome. Panel member name: GPRK5; type: functional
Sequence of G protein-coupled receptor kinase 5 (P34947 whole entry): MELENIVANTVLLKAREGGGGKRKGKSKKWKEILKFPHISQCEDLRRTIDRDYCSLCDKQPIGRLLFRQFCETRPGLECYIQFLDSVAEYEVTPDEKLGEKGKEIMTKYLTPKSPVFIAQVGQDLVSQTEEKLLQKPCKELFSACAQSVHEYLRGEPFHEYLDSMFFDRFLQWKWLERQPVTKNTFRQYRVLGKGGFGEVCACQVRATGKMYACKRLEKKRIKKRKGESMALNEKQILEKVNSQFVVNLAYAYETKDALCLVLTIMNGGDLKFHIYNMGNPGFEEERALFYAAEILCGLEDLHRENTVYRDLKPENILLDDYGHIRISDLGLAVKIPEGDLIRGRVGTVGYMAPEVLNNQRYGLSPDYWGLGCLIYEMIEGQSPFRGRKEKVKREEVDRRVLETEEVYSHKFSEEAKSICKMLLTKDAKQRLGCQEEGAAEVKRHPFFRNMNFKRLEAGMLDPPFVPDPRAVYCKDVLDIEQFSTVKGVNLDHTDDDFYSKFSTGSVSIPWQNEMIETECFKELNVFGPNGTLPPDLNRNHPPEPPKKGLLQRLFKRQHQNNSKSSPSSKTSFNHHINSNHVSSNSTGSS

[18] = target: Cyclin-dependent kinase 5 (Homo sapiens, UniProt Q00535); type: functional;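 note: CDK5 measured as one member of a kinase profiling panel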
Misshapen-like kinase 1 = Misshapen-like kinase 1 (Homo sapiens, UniProt Q8N4C8); type: functional;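 note: kinome panel screen with MINK as the panel member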
Sequence of Misshapen-like kinase 1 (Q8N4C8 whole entry): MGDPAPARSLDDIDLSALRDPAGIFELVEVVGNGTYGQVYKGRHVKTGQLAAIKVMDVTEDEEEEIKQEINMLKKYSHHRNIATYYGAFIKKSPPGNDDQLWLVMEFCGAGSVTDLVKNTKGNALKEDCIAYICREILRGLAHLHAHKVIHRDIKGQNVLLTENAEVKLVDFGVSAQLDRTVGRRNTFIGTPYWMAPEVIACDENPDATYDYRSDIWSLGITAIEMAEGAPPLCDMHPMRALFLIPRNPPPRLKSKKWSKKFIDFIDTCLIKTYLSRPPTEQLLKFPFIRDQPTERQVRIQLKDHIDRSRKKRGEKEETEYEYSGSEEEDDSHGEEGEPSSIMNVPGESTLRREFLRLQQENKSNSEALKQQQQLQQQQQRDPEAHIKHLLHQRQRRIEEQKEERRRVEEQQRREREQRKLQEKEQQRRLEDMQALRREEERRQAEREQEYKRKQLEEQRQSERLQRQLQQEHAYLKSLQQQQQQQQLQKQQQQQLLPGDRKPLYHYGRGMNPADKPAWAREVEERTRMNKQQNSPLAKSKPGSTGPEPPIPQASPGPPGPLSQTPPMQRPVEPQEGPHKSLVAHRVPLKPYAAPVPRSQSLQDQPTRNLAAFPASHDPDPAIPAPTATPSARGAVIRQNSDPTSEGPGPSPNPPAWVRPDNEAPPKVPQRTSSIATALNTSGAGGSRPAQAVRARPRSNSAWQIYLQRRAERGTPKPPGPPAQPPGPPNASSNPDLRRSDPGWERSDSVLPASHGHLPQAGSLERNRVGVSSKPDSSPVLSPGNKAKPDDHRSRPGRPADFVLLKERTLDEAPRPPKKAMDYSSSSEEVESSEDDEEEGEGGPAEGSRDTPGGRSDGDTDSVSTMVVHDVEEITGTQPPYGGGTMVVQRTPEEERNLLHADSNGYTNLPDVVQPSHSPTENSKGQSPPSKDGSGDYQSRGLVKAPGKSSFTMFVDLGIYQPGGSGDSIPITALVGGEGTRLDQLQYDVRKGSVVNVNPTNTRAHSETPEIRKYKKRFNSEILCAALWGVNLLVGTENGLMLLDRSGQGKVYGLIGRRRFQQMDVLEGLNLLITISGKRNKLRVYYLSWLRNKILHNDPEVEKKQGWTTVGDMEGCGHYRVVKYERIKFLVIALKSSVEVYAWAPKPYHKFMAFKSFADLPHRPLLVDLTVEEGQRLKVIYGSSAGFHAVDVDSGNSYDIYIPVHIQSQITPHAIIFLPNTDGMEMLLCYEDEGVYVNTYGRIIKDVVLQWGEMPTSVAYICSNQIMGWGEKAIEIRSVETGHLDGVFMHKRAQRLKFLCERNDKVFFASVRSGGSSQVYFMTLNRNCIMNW

Focal adhesion kinase 1 = Focal adhesion kinase 1 (Homo sapiens, UniProt Q05397); type: functional;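 note: measured as one member of a kinome panel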
[19] = target: Platelet-derived growth factor receptor alpha (Homo sapiens, UniProt P16234); assay: Navigating the Kinome. Panel member name: PDGFRA; type: functional
[20] = target: Vascular endothelial growth factor receptor 3 (Homo sapiens, UniProt P35916); type: functional;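 note: value from a kinome-wide profiling panel, with FLT4 as the panel member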
[21] = target: Serine/threonine-protein kinase DCLK1 (Homo sapiens, UniProt O15075); type: functional;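 note: affinity for DCLK1 (listed as DCAMKL1) measured as one member of a kinome-wide kinase profiling panel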
[22] = target: Serine/threonine-protein kinase Nek2 (Homo sapiens, UniProt P51955); type: functional
[23] = target: Fibroblast growth factor receptor 3 (Homo sapiens, UniProt P22607); type: functional
Sequence of Fibroblast growth factor receptor 3 (P22607 whole entry): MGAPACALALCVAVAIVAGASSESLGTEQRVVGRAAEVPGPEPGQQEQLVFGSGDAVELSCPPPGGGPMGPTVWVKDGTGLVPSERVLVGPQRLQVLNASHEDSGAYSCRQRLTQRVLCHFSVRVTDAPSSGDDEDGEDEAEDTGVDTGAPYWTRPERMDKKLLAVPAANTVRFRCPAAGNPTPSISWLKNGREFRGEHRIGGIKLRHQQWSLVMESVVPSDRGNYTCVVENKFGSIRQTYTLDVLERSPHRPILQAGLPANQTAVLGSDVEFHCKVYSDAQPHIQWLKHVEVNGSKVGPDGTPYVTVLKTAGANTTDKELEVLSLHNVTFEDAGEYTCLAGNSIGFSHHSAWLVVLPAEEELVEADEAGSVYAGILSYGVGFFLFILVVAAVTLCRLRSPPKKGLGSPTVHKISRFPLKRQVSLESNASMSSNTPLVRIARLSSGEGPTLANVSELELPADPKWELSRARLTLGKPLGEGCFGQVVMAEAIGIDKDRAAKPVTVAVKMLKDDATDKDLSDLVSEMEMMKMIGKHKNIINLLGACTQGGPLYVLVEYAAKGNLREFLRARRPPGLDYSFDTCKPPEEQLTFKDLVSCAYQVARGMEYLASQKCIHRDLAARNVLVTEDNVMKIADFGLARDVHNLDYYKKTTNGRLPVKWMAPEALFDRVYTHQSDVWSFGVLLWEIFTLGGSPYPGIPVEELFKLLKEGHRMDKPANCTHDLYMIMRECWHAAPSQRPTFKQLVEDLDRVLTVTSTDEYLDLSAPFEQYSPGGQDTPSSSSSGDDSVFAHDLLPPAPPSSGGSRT

[24] = target: Receptor tyrosine-protein kinase erbB-4 (Homo sapiens, UniProt Q15303); type: functional;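 note: ERBB4 member of a kinome-wide kinase profiling panel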
[25] = target: cAMP-dependent protein kinase catalytic subunit alpha (Homo sapiens, UniProt P17612); type: functional
[26] = target: Macrophage-stimulating protein receptor (Homo sapiens, UniProt Q04912); assay: Navigating the Kinome. Panel member name: MST1R; type: functional

SMILES: CCCn1nc([N+](=O)[O-])c(C(C#N)c2nc3ccccc3s2)c(Cl)c1=O (stereo not drawn)
- AC50 [1]: > 20000 nM (inactive)

SMILES: NCCCn1cc(-c2cc(-c3cc4ccccc4s3)c3[nH]ncc3c2)c2nc(N)ncc21
- Ki [2]: > 2000 nM (inactive)
- Ki [3]: 6.31 nM (active)
- Ki [4]: 794 nM (active)
- Ki [5]: 63.1 nM (active)
- Ki [6]: 50.1 nM (active)
- Ki [7]: > 3160 nM (inactive)
- Ki [8]: 7.94 nM (active)
- Ki [9]: > 3980 nM (inactive)
- Ki [10]: > 3160 nM (inactive)
- Ki [11]: 63.1 nM (active)
- Ki [12]: > 1580 nM (inactive)
- Ki [13]: > 1580 nM (inactive)
- Ki [14]: 100 nM (active)
- Ki [15]: 1260 nM (active)
- Ki [16]: > 5010 nM (inactive)
- Ki [17]: > 3980 nM (inactive)
- Ki [18]: 1580 nM (active)
- Ki (Misshapen-like kinase 1): 100 nM (active)
- Ki (Focal adhesion kinase 1): > 5010 nM (inactive)
- Ki [19]: > 2000 nM (inactive)
- Ki [20]: 1000 nM (active)
- Ki [21]: 2510 nM (active)
- Ki [22]: > 10000 nM (inactive)
- Ki [23]: > 2000 nM (inactive)
- Ki [24]: > 3980 nM (inactive)
- Ki [25]: 39.8 nM (active)
- Ki [26]: > 3980 nM (inactive)

— ChEMBL document CHEMBL1201862, “PubChem BioAssay data set” (2004)
